Results on 27 compounds are retold here after ChEMBL document CHEMBL3872227, “Discovery of novel xanthine compounds targeting DPP-IV and GPR119 as anti-diabetic agents” (Eur J Med Chem, 2016).

Series [1] concerns the target T1, Glucose-dependent insulinotropic receptor (Homo sapiens) (UniProt Q8TDV5).
T1 sequence (whole entry): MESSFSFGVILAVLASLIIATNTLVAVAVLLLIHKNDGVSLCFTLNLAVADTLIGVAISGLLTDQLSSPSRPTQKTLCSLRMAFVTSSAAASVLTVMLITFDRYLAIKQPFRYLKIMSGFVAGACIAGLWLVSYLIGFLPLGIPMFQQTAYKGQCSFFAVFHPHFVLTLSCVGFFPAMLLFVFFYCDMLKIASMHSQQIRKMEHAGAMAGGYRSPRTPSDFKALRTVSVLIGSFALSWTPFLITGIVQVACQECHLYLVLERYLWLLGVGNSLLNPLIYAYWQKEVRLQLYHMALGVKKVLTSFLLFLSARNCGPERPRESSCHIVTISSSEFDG
The series can be described thus: Agonist activity at CREB-LBD and GAL4-DBD fused human GPR119 expressed in HEK293 cells at 1 uM by luciferase reporter gene assay relative to AR231453. Format: functional, cell-based. (In general: A reporter such as luciferase makes a cellular process visible.)

Series [2] addresses Dipeptidyl peptidase 8/9 (Homo sapiens) (UniProt Q6V1X1+Q86TI2). Description: Inhibition of full length recombinant human DPP-8/9 expressed in HEK293 cells at 10 uM incubated for 1 hr. Type of series: cell-based.
In series [3] the target is T2, Glucose-dependent insulinotropic receptor (Homo sapiens, UniProt Q8TDV5).
T2 sequence (Q8TDV5 whole entry): T1 sequence (whole entry)
The series can be described thus: Agonist activity at CREB-LBD and GAL4-DBD fused human GPR119 expressed in HEK293 cells by luciferase reporter gene assay. Format: functional, cell-based.

Series [4] in a line: Metabolic stability in mouse liver microsomes at 1 umol/L after 30 mins by LC/MS/MS method. Format: ADME. Particulars: 0.5 h, 1 µM.

Dipeptidyl peptidase 8/9 (Homo sapiens), sequence (Q6V1X1 whole entry, looked up): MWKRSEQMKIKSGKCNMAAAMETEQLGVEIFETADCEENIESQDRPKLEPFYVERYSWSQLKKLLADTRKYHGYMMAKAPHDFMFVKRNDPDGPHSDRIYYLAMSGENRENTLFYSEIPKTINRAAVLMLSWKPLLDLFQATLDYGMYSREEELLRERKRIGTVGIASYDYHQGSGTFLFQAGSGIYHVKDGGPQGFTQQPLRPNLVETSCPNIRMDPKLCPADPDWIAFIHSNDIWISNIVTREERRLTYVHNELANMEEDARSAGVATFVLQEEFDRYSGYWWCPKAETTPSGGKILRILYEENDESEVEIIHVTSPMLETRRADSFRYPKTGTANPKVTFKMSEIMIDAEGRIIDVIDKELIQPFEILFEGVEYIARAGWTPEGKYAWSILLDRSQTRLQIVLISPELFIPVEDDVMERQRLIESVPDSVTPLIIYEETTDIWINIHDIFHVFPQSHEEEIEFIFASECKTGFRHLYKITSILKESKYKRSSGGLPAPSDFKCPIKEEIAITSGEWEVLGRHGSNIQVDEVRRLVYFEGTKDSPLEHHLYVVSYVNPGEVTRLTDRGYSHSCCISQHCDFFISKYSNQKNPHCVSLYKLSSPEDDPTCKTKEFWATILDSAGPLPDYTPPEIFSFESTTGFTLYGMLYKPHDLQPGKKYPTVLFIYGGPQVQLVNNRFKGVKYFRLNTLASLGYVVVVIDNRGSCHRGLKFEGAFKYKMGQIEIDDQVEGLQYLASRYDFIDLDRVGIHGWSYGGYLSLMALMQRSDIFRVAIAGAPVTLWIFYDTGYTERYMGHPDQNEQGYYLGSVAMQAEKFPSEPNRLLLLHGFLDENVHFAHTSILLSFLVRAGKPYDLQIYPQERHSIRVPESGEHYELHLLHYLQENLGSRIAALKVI
Dipeptidyl peptidase 8/9 (Homo sapiens), sequence (Q86TI2 whole entry, looked up): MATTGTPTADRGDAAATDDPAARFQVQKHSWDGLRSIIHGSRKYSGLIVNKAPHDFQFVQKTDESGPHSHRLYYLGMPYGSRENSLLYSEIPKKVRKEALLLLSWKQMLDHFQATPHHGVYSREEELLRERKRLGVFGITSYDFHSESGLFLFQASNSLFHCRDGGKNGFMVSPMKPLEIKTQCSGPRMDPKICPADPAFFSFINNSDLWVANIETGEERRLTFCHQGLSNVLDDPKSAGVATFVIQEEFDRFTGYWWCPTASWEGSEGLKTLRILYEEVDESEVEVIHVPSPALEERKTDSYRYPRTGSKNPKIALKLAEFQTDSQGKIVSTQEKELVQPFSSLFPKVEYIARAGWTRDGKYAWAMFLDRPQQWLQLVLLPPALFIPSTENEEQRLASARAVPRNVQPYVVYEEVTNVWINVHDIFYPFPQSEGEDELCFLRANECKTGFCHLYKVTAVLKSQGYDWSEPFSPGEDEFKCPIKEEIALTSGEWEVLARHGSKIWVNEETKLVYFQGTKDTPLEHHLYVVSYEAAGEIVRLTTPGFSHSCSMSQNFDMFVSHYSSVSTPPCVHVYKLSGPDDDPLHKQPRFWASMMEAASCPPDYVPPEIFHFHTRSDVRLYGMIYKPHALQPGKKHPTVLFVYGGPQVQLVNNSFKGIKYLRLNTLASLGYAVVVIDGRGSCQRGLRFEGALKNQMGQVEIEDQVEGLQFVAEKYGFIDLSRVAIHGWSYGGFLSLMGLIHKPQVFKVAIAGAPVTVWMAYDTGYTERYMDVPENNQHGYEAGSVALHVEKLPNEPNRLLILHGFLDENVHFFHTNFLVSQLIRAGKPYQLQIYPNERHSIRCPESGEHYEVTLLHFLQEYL

In series [1], `CC#CCn1c(N2CCC[C@@H](N)C2)nc2c1c(=O)n(CCCN1CCC(C(=O)OC3CCCCC3)CC1)c(=O)n2C` yielded an Activity of 29.9%.

For the compound `CC#CCn1c(N2CC[C@@H](N)C2)nc2c1c(=O)n(CCCN1CCC(C(=O)OC(C)C)CC1)c(=O)n2C`, the Activity in series [1] turned out to be 63.9%.

With `CC#CCn1c(N2CCC[C@@H](N)C2)nc2c1c(=O)n(CCCN1CCC(C(=O)Nc3ccc(Cl)cc3)CC1)c(=O)n2C`, the Activity in series [1] amounted to 18.9%.

What is called inhibition is how much of the control response was suppressed. As to `CC#CCn1c(N2CCC[C@@H](N)C2)nc2c1c(=O)n(CCCN1CCC(C(=O)Oc3ccccc3)CC1)c(=O)n2C`, in series [2], the inhibition worked out at 26.3%. In addition, the Activity in series [1] stood at 70.7%.

`CC#CCn1c(N2CC(N)C2)nc2c1c(=O)n(CCCN1CCC(C(=O)OC(C)C)CC1)c(=O)n2C` came in with an Activity in series [1] of 36.5%.

What is called EC50 is the concentration that produces a half-maximal response. High values mean lower potency in that assay, low ones higher potency in that assay. As for `CC(C)c1noc(C2CCN(c3ncnc(Nc4ccc(S(C)(=O)=O)cc4F)c3[N+](=O)[O-])CC2)n1`, it took 700 nM to reach a half-maximal effect in series [3] (EC50).

The compound `CC#CCn1c(N2CCC[C@@H](N)C2)nc2c1c(=O)n(CCCN1CCC(C(=O)Nc3ccc(F)cc3)CC1)c(=O)n2C` gave an Activity in series [1] of 16.2%.

In series [1], `CC#CCn1c(N2CCC[C@@H](N)C2)nc2c1c(=O)n(CCCN1CCC(C(=O)Nc3ccc(Br)cc3)CC1)c(=O)n2C` displayed an Activity of 27.9%.

For `CC#CCn1c(N2CCC[C@@H](N)C2)nc2c1c(=O)n(CCCN1CCC(C(=O)Nc3ccc(C)cc3)CC1)c(=O)n2C`, in series [1], the Activity worked out at 26.2%.

Compound `CC#CCn1c(N2CCC(N)CC2)nc2c1c(=O)n(CCCN1CCC(C(=O)OC(C)C)CC1)c(=O)n2C` returned an Activity in series [1] of 14.5%.

In series [1], `CC#CCn1c(N2CCC[C@@H](N)C2)nc2c1c(=O)n(CCCN1CCC(C(=O)OC3CCC3)CC1)c(=O)n2C` yielded an Activity of 54.8%.

`CC#CCn1c(N2CCC[C@@H](N)C2)nc2c1c(=O)n(CCCN1CCC(C(=O)OCCC)CC1)c(=O)n2C`: the Activity in series [1] is 31.9%.

In the case of `CC#CCn1c(N2CCC[C@@H](N)C2)nc2c1c(=O)n(CCCCN1CCC(C(=O)OC(C)C)CC1)c(=O)n2C`, in series [1], the Activity amounted to 9.8%.

In the case of `CC#CCn1c(N2CCC[C@@H](N)C2)nc2c1c(=O)n(CCCN1CCC(C(=O)OC(C)C)CC1)c(=O)n2C`, in series [2], the inhibition was determined as 16%. For the same compound, the Activity in series [1] was determined as 60.4%.

Take `CC#CCn1c(N2CCCNCC2)nc2c1c(=O)n(CCCN1CCC(C(=O)OC(C)C)CC1)c(=O)n2C`: the inhibition in series [2] came to 22.5%. The compound further had an Activity in series [1] of 69.6%.

With `CC#CCn1c(N2CCC[C@@H](N)C2)nc2c1c(=O)n(CCCN1CCC(C(=O)N(C)C)CC1)c(=O)n2C`, in series [2], the inhibition is 38.1%. Further, the Activity in series [1] is 61.3%.

In the case of `CC#CCn1c(N2CCC[C@@H](N)C2)nc2c1c(=O)n(CCCN1CCC(C(=O)OC3CCCC3)CC1)c(=O)n2C`, in series [1], the Activity worked out at 42.7%.

As for `CC#CCn1c(N2CCC[C@@H](N)C2)nc2c1c(=O)n(CCCCC1CCN(C(=O)OC(C)C)CC1)c(=O)n2C`, in series [2], the inhibition was determined as 31.6%. Also, the Activity in series [1] was determined as 61.8%.

Turning to `CC#CCn1c(N2CCC[C@@H](N)C2)nc2c1c(=O)n(CC1CCN(C(=O)OC(C)C)CC1)c(=O)n2C`, the inhibition in series [2] was 0%. Besides, in series [1], the Activity was found to be 79.3%. The same compound showed an EC50 in series [3] of 1900 nM.

Turning to `CC#CCn1c(N2CCC[C@@H](N)C2)nc2c1c(=O)n(CCCN1CCC(C(=O)OC)CC1)c(=O)n2C`, the inhibition in series [2] is 21.1%. Further, the Activity in series [1] came to 74.5%.

For `CC#CCn1c(N2CCC[C@@H](N)C2)nc2c1c(=O)n(CCC1CCN(C(=O)OC(C)C)CC1)c(=O)n2C`, the inhibition in series [2] worked out at 10.5%. For the same compound, the Activity in series [1] was determined as 69.8%.

Compound `CC#CCn1c(N2CCC[C@@H](N)C2)nc2c1c(=O)n(CCCN1CCC(C(=O)Nc3ccc(C#N)cc3)CC1)c(=O)n2C` had an Activity in series [1] of 68.8%.

On to `CC#CCn1c(N2CCC[C@@H](N)C2)nc2c1c(=O)n(CCCN1CCC(C(=O)OCC)CC1)c(=O)n2C`, for which the inhibition in series [2] came to 12.5%. The compound further displayed an Activity in series [1] of 51.4%.

Consider `CC#CCn1c(N2CCC[C@@H](N)C2)nc2c1c(=O)n(CCN1CCC(C(=O)OC(C)C)CC1)c(=O)n2C`, for which, in series [1], the Activity worked out at 54.2%.

Consider `CC#CCn1c(N2CCC[C@@H](N)C2)nc2c1c(=O)n(CCCC1CCN(C(=O)OC(C)C)CC1)c(=O)n2C`, for which, in series [2], the inhibition was found to be 36.8%. Besides, in series [1], the Activity worked out at 66.1%.

With `CC#CCn1c(N2CCC[C@@H](N)C2)nc2c1c(=O)n(CCCN1CCC(C(=O)Nc3ccc(OC)cc3)CC1)c(=O)n2C`, in series [1], the Activity amounted to 44.4%.

With `CC#CCn1c(N2CCC[C@@H](N)C2)nc2c1c(=O)n(CCCN1CCC(C(=O)Nc3ccccc3)CC1)c(=O)n2C`, the inhibition in series [2] came out at 36.8%. Further, the Activity in series [1] was 81.5%. In series [3], this compound returned an EC50 of 950 nM. Also, in series [4], the Stability entry is given as “Stable”.
